Structures are written as SMILES.

This assay deals with benzodiazepine receptors. As to the kind of experiment: Affinity for benzodiazepine receptors: inhibition of specific binding of 3H-labelled flunitrazepam in rat rear brain membranes. Also on record: species or system rats. The conditions noted are these: inhibition of 50% of specific binding of 0.6×10^-9 mol 3H-flunitrazepam; membranes from rear portion of rat brain. Here is the method:
The affinity of the active ingredients for benzodiazepine receptors was measured using a radioactively labelled (^3 H) compound flunitrazepam in a modified version of the method of Squires et al [Nature, (1977), Vol. 266, p. 732]. The values given in Table 2 below are the concentration (mol×10^-9) of the compound under test which inhibited 50% of the specific binding of 0.6×10^-9 mol of ^3 H-labelled flunitrazepam in preparations of membrances from the rear portion of the brain in rats (IC50 values).
As usually defined, the IC50 is the point on the concentration scale where inhibition reaches its midpoint. Read a low IC50 as greater potency in that assay. `O=C(c1cn2c(n1)sc1cc3c(cc12)OCO3)C1CC1` [Example 5] yielded an IC50 of 158 nM.
Turning to `O=C(c1cn2c(n1)sc1cc(OCc3ccccc3)ccc12)C1CC1` [Example 4, (7-benzyloxy-imidazo[2,1-b]-benzothiazol-2-yl) cyclopropyl-methanone], the IC50 was 3.2 nM.
With `CC(C)Oc1ccc2c(c1)sc1nc(C(=O)C3CC3)cn12` [Example 7, (7-isopropoxy-imidazo[2,1-b]benzothiazol-2-yl) cyclopropyl-methanone], the IC50 came out at 6.3 nM.
Turning to `COc1ccc2c(c1)sc1nc(C(=O)C3CC3)cn12` [Example 1, (7-Methoxy-imidazo[2,1-b]benzothiazol-2-yl)-cyclopropylmethanone], the IC50 is 2.5 nM.
As for `Cc1cc2sc3nc(C(=O)C4CC4)cn3c2cc1C` [Example 8], the figure is 60 nM; as for `O=C(c1cn2c3c(sc2n1)CCCC3)C1CC1` [Example 6, (5,6,7,8-tetrahydro-imidazo[2,1-b]benzothiazol-2-yl) cyclopropyl-methanone], 79 nM; as for `O=C(c1cn2c(n1)sc1ccccc12)C1CC1` [Example 2], 20 nM.

(Values after patent US4895863A, “Novel imidazo[2,1-B]benzothiazoles” (Roussel Uclaf, priority 1987, dated 1990).)
